Laboratory results as given in ChEMBL document CHEMBL1201862, “PubChem BioAssay data set” (2004).
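Method: 48-hour compound exposure of cells in 96-well plates, five concentrations, linear interpolation of endpoints. GI50: concentration for 50% inhibition of growth.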 Activity calls are given as the source filed them. No stated cut-off is given here; in the data, active = GI50 up to about 1.1 µM and inactive = higher.

Tests used:
Assay in all cases: NCI anticancer screen, dose series, 48 h
786-0 = tested on: 786-0
A549 = tested on: A549
COLO 205 = tested on: COLO 205
HL-60 = tested on: HL-60
HT-29 = tested on: HT-29
MCF7 = tested on: MCF7
MDA-MB-231 = tested on: MDA-MB-231
MDA-MB-435 = tested on: MDA-MB-435
NCI-H23 = tested on: NCI-H23
NCI-H460 = tested on: NCI-H460
NCI/ADR-RES = tested on: NCI/ADR-RES
OVCAR-5 = tested on: OVCAR-5
PC-3 = tested on: PC-3
SF-268 = tested on: SF-268
SF-295 = tested on: SF-295
SK-MEL-2 = tested on: SK-MEL-2
SK-OV-3 = tested on: SK-OV-3
T47D = tested on: T47D
U-251 = tested on: U-251
UACC-62 = tested on: UACC-62

Measured: GI50

CN1C(Cl)=NS(=O)(=O)c2ccccc21
inactive: 786-0 > 100 µM | A549 > 100 µM | COLO 205 43 µM | HL-60 35.7 µM | HT-29 > 100 µM | MCF7 > 100 µM | MDA-MB-231 > 100 µM | MDA-MB-435 > 100 µM | NCI-H23 > 100 µM | NCI-H460 92.7 µM | NCI/ADR-RES > 100 µM | OVCAR-5 > 100 µM | PC-3 > 100 µM | SF-268 > 100 µM | SF-295 > 100 µM | SK-MEL-2 > 100 µM | SK-OV-3 > 100 µM | T47D > 100 µM | U-251 > 100 µM | UACC-62 > 100 µM

N=C(N)N/N=C/c1c(-c2ccccc2)nc2ccn3c(/C=N/N=C(N)N)c(-c4ccccc4)nc3n12
inactive: 786-0 82.6 µM | A549 51.2 µM | COLO 205 43.3 µM | HL-60 72.6 µM | HT-29 34.1 µM | MCF7 40.2 µM | MDA-MB-231 > 100 µM | MDA-MB-435 61.2 µM | NCI-H23 > 100 µM | NCI-H460 32.2 µM | NCI/ADR-RES > 100 µM | OVCAR-5 37 µM | PC-3 62.8 µM | SF-268 > 100 µM | SF-295 55.3 µM | SK-MEL-2 > 100 µM | SK-OV-3 37.7 µM | T47D > 100 µM | U-251 58.5 µM | UACC-62 38.9 µM
